# Patent US12569507B2, “CAR T-cells for the treatment of bone metastatic cancer” (H. Lee Moffitt Cancer Center and Research Institute, Inc., priority 2018, dated 2026)
# Assays:
# [1] = tested on: C4-2B-PSCA cells; assay: IFNγ ELISA of co-culture supernatants with increasing Zol; format: cell-based
# Protocol: IFNγ ELISA of co-culture supernatants of C4-2B-PSCA cells exposed to media (negative control) or the indicated T cells, in presence of increasing concentrations of Zol (0, 0.4 and 0.8 μM).
# (§1) γδ CAR-T cells recognize tumor cells via CAR and via TCR. The CAR- and TCR-mediated mechanisms of tumor cell recognition were tested using the CRPC C4-2BPSCA cell line. Cancer cells were treated with either untransduced (UT) control or CAR-expressing γδ T-cells, in the presence or absence of ZOL (0.4 μM). In presence of ZOL, control γδ T cells induced a cytotoxic effect at approx. 18 h, reflecting recognition of C4-2B-PSCA cells via TCR. […] The ability to induce a potent cytolytic effect with lesser cytokine production that can be modulated by ZOL is important since it may allow γδ (CAR-)T-cells to mediate more precise tumor killing, reducing the risk for complications related to massive cytokine release.
# [2] = tested on: Panc02.03 pancreatic cancer cells; assay: IPP production in response to zoledronate, LC-MS/MS of cell extracts; format: cell-based; conditions: Panc02.03 cells, even after prolonged treatment with high doses
# Protocol: (§2) Following treatment of tumor cells with ZOL, IPP was measured in cell extracts by tandem LC-MS/MS, using AppCp as an internal standard. […] ZOL treatment was administered for 1 h or 18 h, at 2 different doses: 10 μM or 25 μM.
# (§3) In order to verify that zoledronate effectively induces IPP accumulation in a model system, C4-2B-PSCA-Luc human CRPC prostate cancer cells were treated with 10 μM or 25 μM of zoledronate, for 1 h or 18 h. Intracellular IPP levels were measured using a semi-quantitative mass spectrometry assay. T47D breast cancer cells were used as positive control, and Panc02.03 pancreatic cancer cells were used as negative controls.
# [3] = tested on: T47D breast cancer cells; assay: as above; format: cell-based; conditions: 1 h, high-dose zoledronate
# Protocol: as §2, §3
# [4] = tested on: PSCA-expressing C42B prostate cancer cells; assay: Interferon-γ ELISA of γδ CAR-T coculture supernatants; format: cell-based
# Text: Four variants of the anti-PSCA CAR were generated containing either CD27 (CD27z), CD28 (CD28z), or 4-1BB (BBz) costimulation. The fourth variant contains a CD27 costimulatory domain where the TRAF-binding site has been replaced with an inert flexible linker (G4S). γδ CAR-T cells expressing either CAR variant (or GFP as controls) were generated, and cocultured with PSCA-expressing C42B prostate cancer cells, in presence or absence of zoledronate, at the indicated doses. The presence of interferon-γ in the supernatants (measured by ELISA) was used as a marker of T cell activation. CAR-expressing T cells (but not untransduced or GFP-transduced cells) reacted to target cells by producing interferon-γ (solid bars).
# [5] = tested on: C4-2B luciferase expressing cells; assay: Intratibial C4-2B bone metastatic CRPC model, γδ T-cells with zoledronate or vehicle; format: in vivo, NSG mice
# Text: FIGS. 7A to 7D show C4-2B cells inoculated into NSG mice and treated with either zoledronate (ZOL) or vehicle control. After establishment and randomization mice (n=15/group) were inoculated with 3.5×10^6 […]. Subsets of mice were removed from the study at 1, 3 and 5 days late. […] Number illustrate the percentage of γδ T-cells in the total marrow analysis over time. […] FIG. 7C is a graph showing RLUs quantitated over time and the growth rates calculated for each group. Asterisk indicates statistical significance. Mice at the final time point were assessed for γδ T-cell localization (CD3), apoptosis (cleaved caspase-3; CC3) and proliferation (phospho histone H3; pHH3). […] Arrows indicate positivity. DAPI was used as a nuclear counterstain.
# Next, the anti-tumor activity of γδ T-cells on established bone metastatic CRPC lesions in vivo was assessed. NSG (NOD.Cg-Prkdcscid112rgtm1Wjl/SzJ) immunocompromised mice were intratibially inoculated with C4-2B luciferase expressing cells (1×10^5) and once established were randomized in zoledronate (0.1 mg/Kg) or vehicle (saline) groups (n=25 per group) based on relative luminescence unit (RLU) measurement. One week later, mice received tail vein injections of human γδ T-cells (3.5×10^6/mouse).
# Groups of mice (n=5) were removed from the study 1, 3, 5 days subsequent to injection with tibias being flushed and assessed for human CD3 Vd2 content by flow cytometry. […] Bioluminescence was used as a correlate of tumor growth.
# [6] = tested on: γδ (CAR)-T cells; assay: IL-2 secretion by γδ (CAR)-T cells; format: cell-based
# [7] = tested on: CRPC C4-2BPSCA cell line; assay: Cytotoxicity of γδ (CAR)-T cells with or without ZOL; format: cell-based; conditions: ZOL 0.4 μM added to γδ CAR-T
# Protocol: FIGS. 11A and 11B show zoledronate enhances γδ (CAR)-T cells cytotoxic effect.
# as §1
# [8] = tested on: Parental C4-2B cells (PSCA null); assay: RTCA cytotoxicity with or without zoledronate; format: cell-based, human; conditions: γδ T-cells in combination with zoledronate
# Protocol: (§4) Summary of RTCA analysis of C4-2B-PSCA, or control PSCA null C4-2B, cells co-cultured with γδ CAR-T cells, or untransduced controls (UT). FIGS. […] show tumor cells without ZOL pretreatment. FIGS. 6C and 6D show tumor cells with 2 h ZOL pretreatment. FIGS. 6A and 6C show tumor cell viability 2 h post co-culture. FIGS. 6B and 6D show 30 h post co-culture.
# (§5) The CAR- and TCR-mediated mechanism of tumor cell recognition were tested using the CRPC C4-2B cell line.
# [9] = tested on: C4-2B-PSCA cells; assay: RTCA cytotoxicity with or without zoledronate; format: cell-based, human; conditions: γδ T-cells in combination with zoledronate
# Protocol: as §4, §5
# [10] = tibias at study endpoint, vs control
smiles,measurement,setting,value
O=P(O)(O)C(O)(Cn1ccnc1)P(=O)(O)O [zoledronate],effect of ZOL on IFNγ secretion,[1]; coculture of γδ (CAR-)T-cells with C4-2BPSCA cells,enhanced IFNγ secretion
same,effect of ZOL on IFNγ secretion,[1]; αβ T cells used,not observed
same,Intracellular IPP levels,[2],did not produce IPP
same,Intracellular IPP levels,[3],detectable over background
same,effect of zoledronate on target recognition by control γδ T cells,[4]; GFP-transduced and untransduced γδ T cells,induced target recognition by GFP-transduced and untransduced γδ T cells
same,effect of zoledronate on interferon production by CAR-T cells,"[4]; γδ CAR-T cells, coculture",enhanced interferon production by CAR-T cells
same,apoptotic (cleaved caspase-3) cancer cells,[5]; [10],increased
same,proliferative (phospho-Histone H3) cancer cells,[5]; [10],decreased
same,C4-2B growth rate (bioluminescence),"[5]; zoledronate group vs controls, with γδ T-cells",significantly slower
same,IL-2 secretion by γδ (CAR)-T cells,[6],increases IL-2 secretion
same,effect of ZOL on cytolytic activity of γδ CAR-T,[7],greatly enhanced
same,time to complete elimination of tumor cells,[7],≤ 45 h
same,"viability of tumor cells, early time point",[8],notable reduction in the viability
same,"viability of tumor cells, early time point",[9],less evident
